From patent publication US7553967B2, “1,2-Dihydroquinoline derivatives and method for using the same to treat HIV infections” (Wyeth, priority 2004, dated 2009)

Biological target: T1, HIV Reverse transcriptase (RT) 66/p51 (Human immunodeficiency virus type 1 group M subtype B, UniProt P04585)
T1 construct: HIV Reverse transcriptase (RT) 66/p51; purchased Worthington
Assay: RNA dependent DNA polymerase (RDDP) activity of HIV RT, 33P-TTP incorporation on polyrA-oligodT12-18, filter plate
Assay type: biochemical

**Q.** `Cc1cn([C@H]2C[C@H](N=[N+]=[N-])[C@@H](CO)O2)c(=O)[nH]c1=O` [AZT] was tested. Which IC50 did it give?
**A.** Its IC50 is less than 200 nM.
